pEC50: −log10 of the molar value.
How the values were obtained:
STAT3 = STAT3 (Homo sapiens, UniProt P40763); assay: Protein thermal shift assay with recombinant STAT3; assay type: binding; parameters: purchased Active motif 81095; details: for ΔTm of STAT3: cut-off 2° C.; for lowest concentration that significantly (>2° C.) shifted the melt curve of STAT3: as low as; for pEC50: non-linear hyperbolic binding curve, read-out: EC50 (half-maximal binding, maximum fluorescence versus dose)
Description: FIG. 5 illustrates an embodiment of the present invention and illustrates evaluations of SIM-1 and SIM-2 as STAT3 inhibitors. (A) Protein thermal shift assay was performed to assess the melting of purified recombinant STAT3 (blue; 0.5 μg protein) (Tm=melting temperature=68.88° C.). The representative melting curves were derived after adding SIM-1 (red; 4 nM), SIM-2 (purple; 8 nM), and positive control stattic (grey; 20 nM) to the STAT3 protein. The differences of melting temperature (ΔTm) between pure protein and protein+ligands are −4.54° C., −4.16° C., and 0.39° C. for SIM-1, SIM-2, and stattic (ΔTm^cut-off>2° C.). (B) Phospho protein array analysis was conducted in cell lysates of MDA-MB-468 cells treated with DMSO control (top left), 25 ng/mL EGF (top right), EGF+10 nM SIM-1 (bottom left), and EGF+SIM-2 (bottom right) for 24 hrs. Each colored arrowhead represents a specific phosphoprotein, and the description was added in the bottom of array images. S=serine and Y=tyrosine. Relative levels of (C) Tyrosine 705 (Y705) phosphorylated STAT3, (D) Serine 727 (S727) phosphorylated STAT3, (E) Tyrosine 693 (Y693) phosphorylated STAT4, (F) Tyrosine 694 ([…]) phosphorylated STAT5A had been derived after normalizing the spot densities (n=5) with respective β-actin spots. Results are mean±SD of five different spot analyses. One-way ANOVA was adopted to test the significance of mean between groups at **p<0.01, and ****p<0.0001. Ns=no significance. Thermal shift assays of increasing doses of (G) SIM-1, (H) SIM-2, and (I) stattic with purified STAT1 protein (0.5 μg protein). The respective ΔTm values were given with the plot after matching with the color code. Similarly, full-length STAT5b protein melting was assessed with (J) SIM-1, (K) SIM-2, and (L) stattic. Results are confirmed after three different experiments.
FIG. 6 illustrates an embodiment of the present invention and illustrates dose-dependent curves of maximum fluorescence for SIM1 and SIM2. Protein thermal shift assay of recombinant STAT3 was performed with increasing doses of (A) SIM-1, (B) SIM-2, and (C) positive control “Stattic”. The maximum fluorescence for each dose was derived and then plotted in GraphPad Prism software with respective doses. The resultant non-liner hyperbolic curves provide half-maximal binding (EC50) for all three compounds.
This example provides a representative study of the present disclosure to test if SIM1 and SIM2 served as ligands of STAT3. Therefore, the present invention adopted a protein thermal shift assay in which […] of recombinant human STAT3 protein (active motif) was incubated with increasing doses of SIM1 and SIM2 followed by the execution of melting analysis starting from 25 to 95° C. as described elsewhere.

[1] = system: STAT3-dependent tumor-promoting genes; assay: cDNA-based gene array of 66 STAT3-dependent genes in MDA-MB-468 cells; assay type: cell-based, human; details: 10 nM doses, EGF-stimulated MDA-MB-468
Description: FIG. 10 illustrates an embodiment of the present invention and illustrates SIM-1 and SIM-2 inhibit expressions of IL6, RANTES, and other STAT3-dependent tumor promoting genes and proteins. (A) A gene array of STAT3 dependent 66 genes (listed in Table 1) was performed in mRNA samples of MDA-MB-468 cells. Realtime PCR plate coated with 66 primer sets of STAT3-dependent genes was run for four conditions including control, EGF (25 ng/mL), EGF+SIM-1 (10 nM) and EGF+SIM-2 (10 nM). The resultant Ct value was normalized with four different housekeeping genes, and then summarized with a heatmap analyses drawn in Morpheus server of Broad Institute. […] (C) The cloning of STAT3 response element of IL6 promoter upstream of GFP reporter was performed by GeneCopoea genome editing service (Rockville, MD). The bit score map and sequence of consensus STAT3 response element or SEQ ID NO: 2 was shown below. […] After that live cells were recorded at Ex:Em=485/535 nm wavelength for GFP activity. […] (G) The GFP reporter activity was measured where the scrambled gene was cloned upstream of eGFP reporter. […]
Gene array. […] After that, mRNA was isolated using the Gene Jet RNA purification kit (Cat. #K0732), quantified by Bio-Rad Smart Spec™ plus spectrophotometer, converted to cDNA by GoScript™ CDNA synthesis kit, as per the manufacturer's instructions. […]

Chain of STAT3 (P40763 whole entry): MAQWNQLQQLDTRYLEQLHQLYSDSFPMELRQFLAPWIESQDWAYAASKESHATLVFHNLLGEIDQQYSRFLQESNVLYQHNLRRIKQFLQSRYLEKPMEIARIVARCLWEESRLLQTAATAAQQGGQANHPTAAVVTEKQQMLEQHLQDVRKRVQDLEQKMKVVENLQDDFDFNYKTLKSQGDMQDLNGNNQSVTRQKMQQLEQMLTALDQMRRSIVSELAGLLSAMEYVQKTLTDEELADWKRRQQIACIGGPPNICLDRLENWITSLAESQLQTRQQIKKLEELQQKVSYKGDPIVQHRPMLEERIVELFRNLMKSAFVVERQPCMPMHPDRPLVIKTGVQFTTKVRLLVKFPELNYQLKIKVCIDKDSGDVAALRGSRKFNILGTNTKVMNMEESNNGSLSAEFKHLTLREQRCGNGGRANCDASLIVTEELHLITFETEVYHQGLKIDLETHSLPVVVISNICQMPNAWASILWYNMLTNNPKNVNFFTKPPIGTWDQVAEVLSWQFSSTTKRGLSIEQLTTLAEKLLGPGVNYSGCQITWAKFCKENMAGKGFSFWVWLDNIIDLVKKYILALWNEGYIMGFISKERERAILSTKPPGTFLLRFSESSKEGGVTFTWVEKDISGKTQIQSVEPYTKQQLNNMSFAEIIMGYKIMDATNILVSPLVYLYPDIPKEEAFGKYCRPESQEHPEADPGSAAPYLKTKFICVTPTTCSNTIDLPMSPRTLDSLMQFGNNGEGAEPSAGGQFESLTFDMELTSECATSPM

SMILES	ΔTm of STAT3 (STAT3; 4 nM ligand) [°C]	lowest concentration that significantly (>2° C.) shifted the melt curve of STAT3 (STAT3) [nM]	pEC50 (STAT3)	expressions of tumor-promoting factors, inflammatory cytokine, metastatic and anti-apoptotic genes (AKT, IL6, RANTES, MMPs, Cyclin D1, Bcl-2 etc.) [1]	ΔTm of STAT3 (STAT3; 6 nM ligand) [°C]	ΔTm of STAT3 (STAT3; 8 nM ligand (FIG. 5A legend)) [°C]
O=C(O)CCC(=O)NCc1csc2ccc(Cl)cc12 [SIM-1, 4-[(5-chloro-1-benzothiophen-3-yl)methylamino]-4-oxobutanoic acid]	−4.54	5	8.34	strongly attenuated		
CCOC(=O)c1c(NC(C)=O)sc2c(Cl)c(/C=N/O)ccc12 [SIM-2, ethyl 2-acetamido-7-chloro-6-(hydroxyiminomethyl)-1-benzothiophene-3-carboxylate]		5	8.28	strongly attenuated	−4.16	−4.16

Reference: US20250255847A1, “[…]s: Novel Drugs for Triple Negative Breast Cancer” (SIMMARON RSEARCH INC, priority 2024, published 2025)
